Measured values reported in the supplement of paper PMC10307832.

What was measured:
Experiment in all cases: relative viability (nuclei count vs DMSO), 5 days (fraction); higher = more cells survive
[1] = compound: CC1=CC=C(C=C1)C(=O)CN2C3=C(CCCC3)SC2=N [Pifithrin_alpha] + CC1(C)CCC(c2ccc(Cl)cc2)=C(CN2CCN(c3ccc(C(=O)NS(=O)(=O)c4ccc(N[C@H](CCN5CCOCC5)CSc5ccccc5)c(S(=O)(=O)C(F)(F)F)c4)cc3)CC2)C1 [Navitoclax] (partner 0.5 µM)
Outline: (§1)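 Values are medians from duplicate plates. Each reflects relative viability, defined as the nuclei count of treated wells over that of vehicle wells. Lung cancer cell lines in 1536-well plates were pin-tool dosed one day after seeding with one drug alone or with a fixed anchor-drug dose plus five library-drug doses (not always all listed) in √10 steps, then fixed, stained and imaged at 4× after 5 days.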

[2] = compound: CC1=CC=C(C=C1)C(=O)CN2C3=C(CCCC3)SC2=N [Pifithrin_alpha] + N=C(N)NC(=N)NCCc1ccccc1 [Phenformin] (partner 250 µM)
Outline: as §1

Axitinib + Trametinib = compound: CNC(=O)c1ccccc1Sc1ccc2c(/C=C/c3ccccn3)n[nH]c2c1 [Axitinib] + CC(=O)Nc1cccc(-n2c(=O)n(C3CC3)c(=O)c3c(Nc4ccc(I)cc4F)n(C)c(=O)c(C)c32)c1 [Trametinib] (partner 0.02 µM)
Outline: as §1

Axitinib + Luminespib = compound: CNC(=O)c1ccccc1Sc1ccc2c(/C=C/c3ccccn3)n[nH]c2c1 [Axitinib] + CCNC(=O)c1noc(-c2cc(C(C)C)c(O)cc2O)c1-c1ccc(CN2CCOCC2)cc1 [Luminespib] (partner 0.01 µM)
Outline: as §1

Cell Line	relative viability ([1]; first compound 1 µM)	relative viability ([1]; first compound 3.162 µM)	relative viability ([1]; first compound 10 µM)	relative viability ([1]; first compound 31.62 µM)	relative viability ([1]; first compound 100 µM)	relative viability ([2]; first compound 1 µM)	relative viability ([2]; first compound 3.162 µM)	relative viability ([2]; first compound 10 µM)	relative viability ([2]; first compound 31.62 µM)	relative viability ([2]; first compound 100 µM)	relative viability (Axitinib + Trametinib; first compound 0.005 µM)	relative viability (Axitinib + Trametinib; first compound 0.01581 µM)	relative viability (Axitinib + Trametinib; first compound 0.05 µM)	relative viability (Axitinib + Trametinib; first compound 0.1581 µM)	relative viability (Axitinib + Trametinib; first compound 0.5 µM)	relative viability (Axitinib + Luminespib; first compound 0.005 µM)	relative viability (Axitinib + Luminespib; first compound 0.01581 µM)	relative viability (Axitinib + Luminespib; first compound 0.05 µM)	relative viability (Axitinib + Luminespib; first compound 0.1581 µM)	relative viability (Axitinib + Luminespib; first compound 0.5 µM)
UMC-11	0.288	0.312	0.312	0.337	0.331	0.312	0.337	0.322	0.287	0.303	0.709	0.668	0.572	0.691	0.616	1.01	1.03	1.07	1.04	1.14
NCI-H596	0.844	0.891	0.9	0.88	1.13	0.761	0.737	0.84	0.766	0.494	0.881	0.625	0.835	0.8	0.895	1.12	1.09	1	0.93	1.04
LOU-NH91	0.502	0.576	0.643	0.409	0.517	0.514	0.647	0.689	0.665	0.627	0.778	0.732	0.807	0.766	0.818	0.325	0.377	0.379	0.349	0.331
HOP-62	0.908	1.09	1.06	0.751	1.07	0.601	0.903	0.749	0.59	0.81	0.404	0.351	0.404	0.431	0.454	0.934	0.798	0.908	0.885	0.85
NCI-H1993		0.79	0.594	0.718	0.639	0.474	0.461	0.49	0.547	0.511	0.433	0.373	0.535	0.503	0.506	1.04	0.918	0.949	0.881	0.823
